# Results reported in patent US10525054B2 (dated 2020).
# Read-outs that look alike come from different tables or passages of the source.
# Assays:
# cocaine-trained rats [1] = conditions: cited from earlier work
# [2] = tested on: acetic acid induced writhing in mice; assay: Acetic acid writhing assay in mice; type: in vivo; conditions: for Mean Number of writhes: in combination with Diclofenac (3 mg/kg), 30 minutes prior to i.p. 0.5% acetic acid, counted 0-20 minutes
# squirrel monkeys = conditions: cited from earlier work
# cocaine-trained rats [3] = conditions: doses of up to 3.2 mg/kg/injection; three-day substitution tests and progressive ratio tests; cited from earlier work
structure (smiles),measurement,setting,value
COC(=O)[C@H]1[C@@H](OC(=O)c2ccccc2)C[C@@H]2CC[C@H]1N2C [cocaine],progressive ratio breakpoint,cocaine-trained rats [1]; maintenance dose 0.56 mg/kg/infusion,128 responses
COCCOCCOCCOCCO[C@H]1CC[C@@]2(O)[C@H]3Cc4ccc(OC)c5c4[C@@]2(CCN3C)[C@H]1O5 [α-6-mPEG4-O-hydroxycodone],Mean Number of writhes,[2]; dose 5 mg/kg oral,13
same,Mean Number of writhes,[2]; dose 10 mg/kg oral,4.8
COc1ccc2c3c1O[C@H]1C(=O)CC[C@@]4(O)[C@@H](C2)N(C)CC[C@]314 [oxycodone],injection lever responses (% ILR),squirrel monkeys; 0.1 mg/kg/injection IV,100%
same,mean progressive ratio breakpoint,cocaine-trained rats [1]; 0.01 mg/kg/infusion,56
same,mean progressive ratio breakpoint,cocaine-trained rats [1]; 0.032 mg/kg/infusion,79
COCCOCCOCCOCCOCCO[C@H]1CC[C@@]2(O)[C@H]3Cc4ccc(OC)c5c4[C@@]2(CCN3C)[C@H]1O5 [α-6-mPEG5-O-hydroxycodone],"reduction of writhings, combination versus each compound individually (FIG. 2)",[2]; combination with diclofenac (3 mg/kg),measured reduction of writhings that is greater than the number of writhings when each compound is individually administered
same,Mean Number of writhes,[2]; dose 5 mg/kg oral,7.2
same,Mean Number of writhes,[2]; dose 10 mg/kg oral,1.4
COCCOCCOCCOCCOCCOCCO[C@H]1CC[C@@]2(O)[C@H]3Cc4ccc(OC)c5c4[C@@]2(CCN3C)[C@H]1O5 [α-6-mPEG6-O-hydroxycodone],behavioral evidence of positive reinforcement,cocaine-trained rats [3],no behavioral evidence of positive reinforcement
same,injection lever responses (% ILR),squirrel monkeys; 0.32 mg/kg IV,22%
same,injection lever responses (% ILR),squirrel monkeys; 1.0 mg/kg IV,39%
same,injection lever responses (% ILR),squirrel monkeys; 3.2 mg/kg IV,50%
same,"exclusive injection lever responding, number of subjects","squirrel monkeys; highest dose tested, 3.2 mg/kg/injection, 3-4 subjects",only two subjects
same,reinforcing strength,squirrel monkeys; highest doses tested of 3.2 mg/kg/injection,marked reduction in reinforcing strength
same,potency in self-administration relative to oxycodone and morphine,squirrel monkeys; monkeys,significantly lower potency than oxycodone and morphine
same,Mean Number of writhes,[2]; dose 5 mg/kg oral,6.2
same,Mean Number of writhes,[2]; dose 10 mg/kg oral,4
same,reinforcing properties in progressive ratio tests,cocaine-trained rats [1]; behaved like saline,no reinforcing properties
same,progressive ratio breakpoints compared with saline,cocaine-trained rats [1]; five out of six tested doses,lower than that produced by saline
COc1ccc2c3c1O[C@H]1C(=O)CC[C@H]4[C@@H](C2)N(C)CC[C@]314 [hydrocodone],progressive ratio breakpoint,cocaine-trained rats [1]; 0.18 mg/kg/infusion,114
"CN1CC[C@]23c4c5ccc(O)c4O[C@H]2[C@@H](O)C=C[C@H]3[C@H]1C5 [morphine, reference compound]",injection lever responses (% ILR),squirrel monkeys; 0.03 mg/kg/injection IV,100%
